The test system of this assay is corn immature embryos. Briefly: Immature embryo germination inhibition bioassay (kill curves). It is filed as cell-based, Zea mays. To be noted: immature embryos 2 mm on germination medium, 27° C. in light; shoot and primary root length 7 days after dissection. The procedure:
In order to establish effective concentrations of D-Serine and D-Alanine on inhibiting growth of tissue cultured corn cells, a bioassay system using immature embryos was applied. Immature embryos 2 mm in length were dissected onto germination medium with the selection agents, and incubated at 27° C. in light. The lengths of the shoot and primary root of a germinated seedling were measured 7 days after embryo dissection (FIGS. 1A and 1B).

The structures appear in SMILES notation.

This is an account of results in patent US20090038025A1, “Selection system for maize transformation” (BASF Plant Science GmbH, priority 2005, published 2009).

`C[C@@H](N)C(=O)O` [D-Alanine]: the “concentration above which significant/pronounced growth inhibition occurs” value is reported as “higher than 2 mM”.
As to `N[C@H](CO)C(=O)O` [D-Serine], the “concentration above which significant/pronounced growth inhibition occurs” value was “higher than 9 mM”.
